Biological target: T1, rCfDDC (recombinant CfDDC, dopa decarboxylase of Chlamys farreri) (Azumapecten farreri, UniProt F8QPW5)
T1 construct: gene DDC; ~65 kDa on gel
T1 sequence (F8QPW5 1-560): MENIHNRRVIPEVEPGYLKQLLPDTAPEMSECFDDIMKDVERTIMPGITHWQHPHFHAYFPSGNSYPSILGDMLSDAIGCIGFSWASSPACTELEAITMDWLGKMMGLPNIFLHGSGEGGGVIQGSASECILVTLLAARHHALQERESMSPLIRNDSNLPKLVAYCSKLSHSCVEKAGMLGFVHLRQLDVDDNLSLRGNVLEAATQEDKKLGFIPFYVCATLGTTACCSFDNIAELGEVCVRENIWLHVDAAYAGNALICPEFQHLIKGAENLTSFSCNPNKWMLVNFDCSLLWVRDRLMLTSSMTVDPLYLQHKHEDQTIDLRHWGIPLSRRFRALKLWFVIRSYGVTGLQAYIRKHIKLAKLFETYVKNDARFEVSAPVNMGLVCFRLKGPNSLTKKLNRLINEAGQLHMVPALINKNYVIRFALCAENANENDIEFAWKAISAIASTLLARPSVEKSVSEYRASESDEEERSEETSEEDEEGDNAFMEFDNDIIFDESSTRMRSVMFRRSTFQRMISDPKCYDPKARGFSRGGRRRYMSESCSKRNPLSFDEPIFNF
Test: dopamine formation measured by ELISA kit
Assay type: biochemical
Settings: 30 mM L-Dopa; 0.4 mM PLP; PBS pH 7.4; 37 °C; 1 h

N[C@@H](Cc1ccc(O)c(O)c1)C(=O)O [L-Dopa]
dopamine formation measured by ELISA kit: there was detectable dopamine in the reactions with the addition of rCfDDC

Source: PMC3076384, “A Dopa Decarboxylase Modulating the Immune Response of Scallop Chlamys farreri” (PLoS ONE, 2011)
